Patent US9856508B2, “Chemiluminescent compositions, methods, assays and kits for oxidative enzymes” (LIFE TECHNOLOGIES CORPORATION, priority 2010, dated 2018)

Experiments:
Experiment in all cases: Isozyme specificity of 1,2-dioxetane substrates, rhCYP microsomes, 2-step endpoint assay
CYP3A family isozymes [1] = type: biochemical, human; settings: dioxetane as enzyme substrate
Procedure: (§1) Assays were performed using the same conditions (25° C., 5 nM rhCyp, 10 μM substrate, 25 min endpoint assay, with isozyme-specific buffers, Luminoscan plate reader) but on different days.
(§2) Cytochrome P450 assays have been developed to determine the isozyme specificity of novel 1,2-dioxetane chemiluminescent CYP450 substrates. In these assays, a 1,2-dioxetane substrate that has been determined to be a good substrate for a specific CYP450 isozyme is screened against individual recombinant (human or other) CYP450 isozymes. The protocol follows the 2-Step Endpoint assay format described above (Example 2, Format 1). The assay can be performed using either assay conditions that mimic an inhibition assay (Example 1) using substrate concentrations near the known or predicted Km of the substrate with its known isozyme, or at concentrations designed for more sensitive enzyme detection which is generally above the Km. Assays can be performed in several different ways depending on the desired information. If one is seeking to find out if the dioxetane is a substrate for different CYP450 isozymes at the specific isozyme's preferred assay conditions, the assays should be performed using the buffer and assay conditions preferred by each specific isozyme (Format 1). If one wants to find out if the dioxetane substrate is selective for a given CYP450 isozyme at that isozyme's preferred assay conditions, the assay should be performed using only the assay conditions of the matched isozyme (Format 2). Assays use recombinant human (rh) CYP450 isozymes (final [5 or 10 nM]), NADPH Regeneration System (final [1×]) and Potassium Phosphate Buffer prepared in a 2× Master Mix. 50 μL of the Master Mix is added to the wells of a 96-well plate. 40 μL of water is added the rows of the plate containing the Master Mix. The reaction is started by addition of 10 μL of a 10× NADP+ (nicotinamide adenine dinucleotide phosphate) and 1,2-Dioxetane Substrate (final [1 to 10 μM]) mix to assay wells. The assays are incubated for either 25 min (Format 1) or at the specific assay time (see Example 48, Format 2).
(§3) • (See FIGS. 3A, 4A, and 5A.) Materials: • rhCytochrome P450 Isozymes: • CYP3A4 (BD/Gentest, Cat #456202) (or other vendor) • CYP2C19 (BD/Gentest, Cat #456259) (or other vendor) • CYP2C9 (BD/Gentest, Cat #456258) (or other vendor) • CYP2D6 (BD/Gentest, Cat #456217) (or other vendor) • CYP1A2 (BD/Gentest, Cat #456203) (or other vendor) • Or Other CYP450 recombinant isozymes • 200 mM Potassium Phosphate Buffer, pH 7.4 • 100 mM Potassium Phosphate Buffer, pH 7.4 • 100× NADP+ • (10 mM NADP+ in 100 mM Potassium phosphate buffer, pH 7.4) • 100× Regeneration System • (333 mM Glucose-6-phosphate, 30 Units/mL Glucose-6-phosphate dehydrogenase in 100 mM Potassium Phosphate Buffer, pH 7.4) • 1,2-Dioxetane Substrates (in 100% Acetonitrile, water, or acetonitrile/water mixture) • 96 well white microplate • Accelerator II Protocol Overview: (See, FIG. 10). Assay Set-Up:
(§4) Contains: • NADP+: 100× stock is 10 mM NADP+ in 100 mM Potassium Phosphate Buffer, pH 7.4 • 100 μM Known 1,2-Dioxetane Substrate Assay Procedure: • 1. Thaw all reagents on ice, except substrates: warm-up to RT under aluminum foil (light sensitive) • 2. Prepare 2× Master Mixes in 2× reaction buffer (keep on ice).
(§5) • 3. Add 50 μL of the specific 2× Master Mix to the desired wells • 4. Add 40 μL of sterile water (H2O) to each well of the plate • 5. Cover plate with plate sealer and let the assay wells equilibrate to 25° C. or room temperature for a few minutes while you prepare the 10×NADP+/Substrate Mixture. • 6. Prepare 10× NADP+/Substrate Mixture immediately before use (light sensitive!)
(§6) • 100× NADP+: 10× (1× final) • H2O: to final volume. • Add substrate by trituration and vortex to allow for maximum substrate solubility in the aqueous mixture. • *The final organic solvent concentration in the assay should be less than 0.1% and preferably much less. • 7. […]

CYP3A family isozymes [2] = target: T1, CYP3A family isozymes (Homo sapiens, UniProt P08684); type: biochemical; settings: FIG. 4A; rhCYP microsomes, 25° C., 25 min, 10 μM substrate, 5 nM rhCYP450, isozyme-preferred potassium phosphate buffer, pH 7.4
T1 construct: purchased BD/Gentest (CYP3A4 only; or other vendor) 456202 (CYP3A4); host or cells: recombinant human CYP microsomes
Procedure: as §1, §2, §3, §4, §5, §6

CYP2C19 = target: T2, CYP2C19 (Homo sapiens, UniProt P33261); type: biochemical
T2 construct: purchased BD/Gentest (or other vendor) 456259; host or cells: recombinant human CYP microsomes
Procedure: as §1, §2, §3, §4, §5, §6

T2 sequence (P33261 whole entry): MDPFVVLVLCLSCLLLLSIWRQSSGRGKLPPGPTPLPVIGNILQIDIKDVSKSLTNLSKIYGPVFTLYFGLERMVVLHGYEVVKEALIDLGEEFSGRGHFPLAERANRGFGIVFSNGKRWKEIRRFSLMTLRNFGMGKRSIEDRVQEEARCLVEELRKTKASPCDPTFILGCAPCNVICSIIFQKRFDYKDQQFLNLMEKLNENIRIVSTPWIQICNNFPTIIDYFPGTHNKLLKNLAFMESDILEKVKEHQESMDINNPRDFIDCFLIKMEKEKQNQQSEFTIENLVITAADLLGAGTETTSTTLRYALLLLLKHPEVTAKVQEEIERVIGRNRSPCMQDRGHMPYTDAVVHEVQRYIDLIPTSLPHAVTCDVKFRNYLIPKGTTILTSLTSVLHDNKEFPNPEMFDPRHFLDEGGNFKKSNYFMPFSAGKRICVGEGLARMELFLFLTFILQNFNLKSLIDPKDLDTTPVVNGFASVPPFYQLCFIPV
T1 sequence (P08684 whole entry): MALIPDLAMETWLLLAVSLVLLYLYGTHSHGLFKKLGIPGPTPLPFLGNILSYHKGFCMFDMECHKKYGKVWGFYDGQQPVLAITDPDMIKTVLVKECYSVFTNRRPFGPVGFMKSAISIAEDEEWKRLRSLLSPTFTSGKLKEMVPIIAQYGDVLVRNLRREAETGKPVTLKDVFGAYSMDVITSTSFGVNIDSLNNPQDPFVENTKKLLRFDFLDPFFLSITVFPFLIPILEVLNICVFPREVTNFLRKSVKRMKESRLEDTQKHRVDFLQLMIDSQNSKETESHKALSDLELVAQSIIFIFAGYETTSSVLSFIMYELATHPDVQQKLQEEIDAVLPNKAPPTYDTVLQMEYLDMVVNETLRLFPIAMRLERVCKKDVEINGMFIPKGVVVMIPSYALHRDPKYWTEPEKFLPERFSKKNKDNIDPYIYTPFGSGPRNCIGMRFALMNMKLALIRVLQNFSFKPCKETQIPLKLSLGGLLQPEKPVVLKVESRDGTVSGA

COC1(c2cccc(OCc3ccccc3)c2)OOC12C1CC3CC(C1)CC2C3 (stereo not shown) [AMPPD-Bn]
specificity for the CYP3A family isozymes (CYP3A family isozymes [1]): strong specificity
specificity for CYP3A4 isozyme (CYP3A family isozymes [2]): strong specificity
specificity for the CYP2C19 isozyme (CYP2C19; FIG. 4A/5A, rhCYP microsomes, 25° C., 25 min, 10 μM substrate, 5 nM rhCYP450, isozyme-preferred potassium phosphate buffer, pH 7.4): strong specificity
activity from CYP2C19 under CYP2C19 assay conditions (CYP2C19; dioxetane as enzyme substrate, CYP2C19 assay conditions): significant activity
